According to ChEMBL document CHEMBL1157764, “Conserved high activity binding peptides are involved in adhesion of two detergent-resistant membrane-associated merozoite proteins to red blood cells during invasion” (J Med Chem, 2010):
One block for each molecule: values may come before it. Activity calls are given as the source filed them. The rule behind the calls is not given here.

Experiments:
Homo sapiens [1] = species: Homo sapiens; assay: Binding affinity to RBC membrane receptor in 150 uU/mL neuraminidase pretreated human RBCs relative to untreated RBCs
Homo sapiens [2] = species: Homo sapiens; assay: Binding affinity to RBC membrane receptor in human RBCs assessed as specific binding activity measured as ratio of specifically bound peptide/added peptide by gamma counter
Homo sapiens [3] = species: Homo sapiens; assay: Binding affinity to RBC membrane receptor in 1 mg/mL trypsin pretreated human RBCs relative to untreated RBCs
Plasmodium falciparum [4] = assay: Antiplasmodial activity against Plasmodium falciparum FCB2 assessed as inhibition of merozoite invasion of human RBCs at 100 uM after 18 hrs using hydroethidine staining by flow cytometry; type: functional; details: FCB2, 18 h
[5] = Binding affinity to RBC membrane receptor in human RBCs assessed as dissociation constant by gamma counter
Plasmodium falciparum [6] = assay: Antiplasmodial activity against Plasmodium falciparum FCB2 assessed as inhibition of merozoite invasion of human RBCs at 200 uM after 18 hrs using hydroethidine staining by flow cytometry; type: functional; details: FCB2, 18 h
Homo sapiens [7] = species: Homo sapiens; assay: Binding affinity to RBC membrane receptor in 1 mg/mL chymotrypsin pretreated human RBCs relative to untreated RBCs
Homo sapiens [8] = species: Homo sapiens; assay: Binding affinity of radio labeled compound to 68 kDa RBC membrane receptor in human RBCs cross-linked with bis-(sulfosuccinimidyl)suberate by autoradiography using SDS-PAGE
Homo sapiens [9] = species: Homo sapiens; assay: Binding affinity of radio labeled compound to 78 kDa RBC membrane receptor in human RBCs cross-linked with bis-(sulfosuccinimidyl)suberate by autoradiography using SDS-PAGE
Homo sapiens [10] = species: Homo sapiens; assay: Binding affinity of radio labeled compound to 85 kDa RBC membrane receptor in human RBCs cross-linked with bis-(sulfosuccinimidyl)suberate by autoradiography using SDS-PAGE
Homo sapiens [11] = species: Homo sapiens; assay: Binding affinity of radio labeled compound to 170 kDa RBC membrane receptor in human RBCs cross-linked with bis-(sulfosuccinimidyl)suberate by autoradiography using SDS-PAGE
Homo sapiens [12] = species: Homo sapiens; assay: Binding affinity of radio labeled compound to 47 kDa RBC membrane receptor in human RBCs cross-linked with bis-(sulfosuccinimidyl)suberate by autoradiography using SDS-PAGE
Plasmodium falciparum [13] = assay: Antiplasmodial activity against Plasmodium falciparum FCB2 assessed as inhibition of merozoite invasion of human RBCs at 1.85 mg/mL after 18 hrs using hydroethidine staining by flow cytometry; type: functional; design: scale not given: the % may be the effect or the level left
Plasmodium falciparum [14] = assay: Antiplasmodial activity against Plasmodium falciparum FCB2 assessed as inhibition of merozoite invasion of human RBCs at 1.9 mg/mL after 18 hrs using hydroethidine staining by flow cytometry; type: functional; design: scale not given: the % may be the effect or the level left

Molecule: CC(C)C[C@H](NC(=O)[C@H](CCCCN)NC(=O)[C@H](Cc1ccc(O)cc1)NC(=O)[C@H](CC(C)C)NC(=O)CNC(=O)[C@H](CC(=O)O)NC(=O)[C@H](CO)NC(=O)[C@H](CO)NC(=O)[C@H](Cc1ccc(O)cc1)NC(=O)[C@H](CCCCN)NC(=O)[C@H](CC(C)C)NC(=O)[C@H](Cc1cnc[nH]1)NC(=O)[C@H](CO)NC(=O)[C@H](CO)NC(=O)[C@@H]1CCCN1C(=O)[C@@H](NC(=O)[C@H](CCCCN)NC(=O)[C@H](CS)NC(=O)[C@@H](NC(=O)[C@@H](N)CCCCN)[C@H](C)O)C(C)C)C(=O)O
- Activity (Homo sapiens [1]): 23%
- Activity (Homo sapiens [2]): > 2%
- Activity (Homo sapiens [3]): 55%
- inhibition at 100 µM (Plasmodium falciparum [4]): 45%
- Kd [5]: 250 nM
- inhibition at 200 µM (Plasmodium falciparum [6]): 13%
- Activity (Homo sapiens [7]): 37%

Molecule: CCN(CC)CCCC(C)Nc1ccnc2cc(Cl)ccc12 (stereo not drawn) [CHLOROQUINE]
- Activity (Plasmodium falciparum [13]): 68%

Molecule: O=C(O)CN(CCOCCOCCN(CC(=O)O)CC(=O)O)CC(=O)O [EGTAZIC ACID]
- Activity (Plasmodium falciparum [14]): 81%

Molecule: H-ASLKETMNKIDTIEKKIEEFY-OH
- Activity (Homo sapiens [1]): 12%
- Activity (Homo sapiens [9]): Active
- Activity (Homo sapiens [2]): > 2%
- Activity (Homo sapiens [3]): 87%
- Activity (Homo sapiens [10]): Active
- inhibition at 100 µM (Plasmodium falciparum [4]): 40%
- Kd [5]: 1200 nM
- inhibition at 200 µM (Plasmodium falciparum [6]): 8%
- Activity (Homo sapiens [7]): 33%

Molecule: H-DNNKECLIDPLDVQKNLLNEY-OH
- Activity (Homo sapiens [1]): 13%
- Activity (Homo sapiens [9]): Active
- Activity (Homo sapiens [2]): > 2%
- Activity (Homo sapiens [3]): 105%
- Activity (Homo sapiens [10]): Active
- inhibition at 100 µM (Plasmodium falciparum [4]): 36%
- Kd [5]: 800 nM
- inhibition at 200 µM (Plasmodium falciparum [6]): 4%
- Activity (Homo sapiens [7]): 59%

Molecule: H-NEQDENVKGMSSSQEMNSNNY-OH
- Activity (Homo sapiens [2]): > 2%

Molecule: H-NKTDNGSSFFFAMSNALLVIY-OH
- Activity (Homo sapiens [2]): > 2%

Molecule: H-NYYISPFYDENSIKQEINKK-OH
- Activity (Homo sapiens [2]): > 2%

Molecule: H-QEKLNTTDPSKAYIYGANII-OH
- Activity (Homo sapiens [2]): > 2%

Molecule: H-QNNEQEQPKQDDQLLNNNNDY-OH
- Activity (Homo sapiens [2]): > 2%

Molecule: H-RLKENKDYDVVSSIIQHLDN-OH
- Activity (Homo sapiens [1]): 55%
- Activity (Homo sapiens [9]): Active
- Activity (Homo sapiens [2]): > 2%
- Activity (Homo sapiens [3]): 18%
- Activity (Homo sapiens [10]): Active
- inhibition at 100 µM (Plasmodium falciparum [4]): 42%
- Kd [5]: 730 nM
- inhibition at 200 µM (Plasmodium falciparum [6]): 7%
- Activity (Homo sapiens [7]): 94%

Molecule: H-RYNEMKRDANPDVYYIYLMD-OH
- Activity (Homo sapiens [2]): > 2%

Molecule: H-SDIFFKYNPSENIMDHQEMV-OH
- Activity (Homo sapiens [2]): > 2%

Molecule: H-SEEANDENKDNMQTTTDEGTY-OH
- Activity (Homo sapiens [2]): > 2%

Molecule: H-TSEEKMILIFKCDNKFYITK-OH
- Activity (Homo sapiens [2]): > 2%

Molecule: H-TYHLAIVKNEDKLQLAFTYD-OH
- Activity (Homo sapiens [2]): > 2%

Molecule: H-VHFMAGGQKYKYEGIDLTDS-OH
- Activity (Homo sapiens [2]): > 2%

Molecule: H-YFFEYELRKKTQSFRNKNSI-OH
- Activity (Homo sapiens [1]): 17%
- Activity (Homo sapiens [9]): Active
- Activity (Homo sapiens [2]): > 2%
- Activity (Homo sapiens [3]): 83%
- Activity (Homo sapiens [10]): Active
- inhibition at 100 µM (Plasmodium falciparum [4]): 40%
- Kd [5]: 900 nM
- inhibition at 200 µM (Plasmodium falciparum [6]): 10%
- Activity (Homo sapiens [7]): 31%

Second part, led by results:

- Activity (Homo sapiens [1]): 67%
- Activity (Homo sapiens [2]): > 2%
- Activity (Homo sapiens [3]): 11%
- Kd [5]: 900 nM
- Activity (Homo sapiens [7]): 79%
Molecule: CC[C@H](C)[C@H](NC(=O)[C@H](CCCCN)NC(=O)CNC(=O)CNC(=O)[C@H](Cc1ccc(O)cc1)NC(=O)[C@H](CC(=O)O)NC(=O)[C@H](CO)NC(=O)[C@H](CC(C)C)NC(=O)[C@@H](N)CCCNC(=N)N)C(=O)N[C@@H](CC(C)C)C(=O)N[C@H](C(=O)N[C@@H](CCCCN)C(=O)NCC(=O)N[C@H](C(=O)N[C@@H](CC(N)=O)C(=O)N[C@@H](C)C(=O)N[C@@H](CCC(N)=O)C(=O)N[C@@H](CC(N)=O)C(=O)N[C@H](C(=O)N[C@@H](CC(C)C)C(=O)O)[C@H](C)O)[C@@H](C)O)C(C)C
- inhibition at 100 µM (Plasmodium falciparum [4]): 34%
- inhibition at 200 µM (Plasmodium falciparum [6]): 9%

- Activity (Homo sapiens [1]): 120%
- Activity (Homo sapiens [8]): Active
- Activity (Homo sapiens [9]): Active
- Activity (Homo sapiens [2]): > 2%
- Activity (Homo sapiens [3]): 29%
- Activity (Homo sapiens [10]): Active
- Activity (Homo sapiens [11]): Active
- Kd [5]: 800 nM
- Activity (Homo sapiens [12]): Active
- Activity (Homo sapiens [7]): 90%
Molecule: CC[C@H](C)[C@H](NC(=O)[C@H](Cc1cnc[nH]1)NC(=O)[C@H](CC(N)=O)NC(=O)[C@H](CCCNC(=N)N)NC(=O)[C@@H](NC(=O)[C@@H](N)Cc1ccc(O)cc1)[C@@H](C)CC)C(=O)N[C@@H](CC(=O)O)C(=O)N[C@@H](CC(C)C)C(=O)N[C@@H](CC(=O)O)C(=O)N[C@@H](Cc1ccccc1)C(=O)N1CCC[C@H]1C(=O)N[C@@H](Cc1ccccc1)C(=O)N[C@@H](CC(=O)O)C(=O)N[C@H](C(=O)N[C@@H](CC(=O)O)C(=O)N[C@H](C(=O)N[C@H](C(=O)N[C@@H](CCCCN)C(=O)N[C@@H](CC(C)C)C(=O)N[C@@H](Cc1ccc(O)cc1)C(=O)O)C(C)C)[C@H](C)O)[C@H](C)O
- inhibition at 100 µM (Plasmodium falciparum [4]): 76%
- inhibition at 200 µM (Plasmodium falciparum [6]): -3%

- Activity (Homo sapiens [1]): 25%
- Activity (Homo sapiens [9]): Active
- Activity (Homo sapiens [2]): > 2%
- Activity (Homo sapiens [3]): 50%
- Activity (Homo sapiens [10]): Active
- Kd [5]: 510 nM
- Activity (Homo sapiens [7]): 87%
Molecule: CC[C@H](C)[C@H](NC(=O)[C@H](CCCNC(=N)N)NC(=O)[C@H](CCC(=O)O)NC(=O)[C@H](Cc1cnc[nH]1)NC(=O)[C@@H](NC(=O)[C@H](CC(C)C)NC(=O)[C@H](Cc1c[nH]c2ccccc12)NC(=O)[C@H](CCCCN)NC(=O)[C@H](CCCCN)NC(=O)[C@H](CCCCN)NC(=O)[C@H](CCCCN)NC(=O)[C@H](CC(N)=O)NC(=O)[C@H](C)NC(=O)[C@H](CC(=O)O)NC(=O)[C@@H](N)C(C)C)[C@@H](C)O)C(=O)N[C@@H](CC(C)C)C(=O)N[C@@H](CCCCN)C(=O)N[C@@H](CCCCN)C(=O)N[C@@H](CC(C)C)C(=O)N[C@@H](CCC(N)=O)C(=O)N[C@@H](Cc1ccc(O)cc1)C(=O)O
- inhibition at 100 µM (Plasmodium falciparum [4]): 37%
- inhibition at 200 µM (Plasmodium falciparum [6]): 11%

- Activity (Homo sapiens [1]): 5%
- Activity (Homo sapiens [2]): > 2%
- Activity (Homo sapiens [3]): 31%
- Kd [5]: 850 nM
- Activity (Homo sapiens [7]): 116%
Molecule: H-FVLAPDEMVYLFYHGNEKKN-OH
- inhibition at 100 µM (Plasmodium falciparum [4]): 49%
- inhibition at 200 µM (Plasmodium falciparum [6]): 9%

- Activity (Homo sapiens [2]): > 2%
Molecule: H-NEDNKDLEHGSSNDVNNNTDY-OH

- Activity (Homo sapiens [2]): > 2%
Molecule: H-NNDDQDEQGNDGDVTSSMNKY-OH

- Activity (Homo sapiens [2]): > 2%
Molecule: H-NNEKVVPLSNEPQEIIQPPIY-OH

- Activity (Homo sapiens [2]): > 2%
Molecule: H-NYKSTYCVLSNNYRIVVEFD-OH

- Activity (Homo sapiens [1]): 68%
- Activity (Homo sapiens [9]): Active
- Activity (Homo sapiens [2]): > 2%
- Activity (Homo sapiens [3]): 43%
- Activity (Homo sapiens [10]): Active
- Kd [5]: 1700 nM
- Activity (Homo sapiens [7]): 7%
Molecule: H-NYRRRKRITELRKILVEKLR-OH
- inhibition at 100 µM (Plasmodium falciparum [4]): 47%
- inhibition at 200 µM (Plasmodium falciparum [6]): 15%

- Activity (Homo sapiens [2]): > 2%
Molecule: H-SKINKELAHRTALFNKLADNY-OH

- Activity (Homo sapiens [2]): > 2%
Molecule: H-SPNYELSLNSLSDSQNVDIF-OH

- Activity (Homo sapiens [2]): > 2%
Molecule: H-TEEKGKDEQKKDEQKEQDEEY-OH

- Activity (Homo sapiens [2]): > 2%
Molecule: H-TLDIEKIEDINLEEVKMSLLY-OH

- Activity (Homo sapiens [2]): > 2%
Molecule: H-TLVNNKENKEFVLKEKSSLTY-OH

- Activity (Homo sapiens [2]): > 2%
Molecule: H-TNTTPAVYSGSLLSMNNDFE-OH

- Activity (Homo sapiens [2]): > 2%
Molecule: H-VSKFDNNKTIGFVCPVKSSY-OH

- Activity (Homo sapiens [2]): > 2%
Molecule: H-YGKEFKWSDPKVIDVSNVIG-OH

- Activity (Homo sapiens [2]): > 2%
Molecule: H-YMREIRLLGKCMLSFDEGNN-OH
